Results from the supplement of paper PMC4932681.

Tests used:
Test in all cases: viability inhibition at highest dose (% inhibition); higher = more growth inhibition
ZR-75-1 = details: 72 h
Method: (§1)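 Percent inhibition of viability (CellTiter-Glo, 72 h) at the highest tested concentration (D5), normalised to DMSO (0%) and 100 µM benzethonium chloride (100%). Resistant lines and the 'in 1µM tamoxifen' arms were tested in 1 µM 4-OH-tamoxifen.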

MCF-7 Tam1 = details: 4-OH-tamoxifen in medium 1 µM; 72 h
Method: as §1

BT-474 Tam2 = details: 4-OH-tamoxifen in medium 1 µM; 72 h
Method: as §1

ZR-75-1 Tam1 = details: 4-OH-tamoxifen in medium 1 µM; 72 h
Method: as §1

T-47D = details: 72 h
Method: as §1

MCF-7 = details: 72 h
Method: as §1

BT-474 = details: 72 h
Method: as §1

BT-474 Tam1 = details: 4-OH-tamoxifen in medium 1 µM; 72 h
Method: as §1

T-47D Tam1 = details: 4-OH-tamoxifen in medium 1 µM; 72 h
Method: as §1

T-47D Tam2 = details: 4-OH-tamoxifen in medium 1 µM; 72 h
Method: as §1

ZR-75-1 Tam2 = details: 4-OH-tamoxifen in medium 1 µM; 72 h
Method: as §1

Row | Structure (SMILES) | viability inhibition at highest dose (ZR-75-1; 4-OH-tamoxifen in medium 0 µM) | viability inhibition at highest dose (ZR-75-1; 4-OH-tamoxifen in medium 1 µM) | viability inhibition at highest dose (MCF-7 Tam1) | viability inhibition at highest dose (BT-474 Tam2) | viability inhibition at highest dose (ZR-75-1 Tam1) | viability inhibition at highest dose (T-47D; 4-OH-tamoxifen in medium 0 µM) | viability inhibition at highest dose (T-47D; 4-OH-tamoxifen in medium 1 µM) | viability inhibition at highest dose (MCF-7; 4-OH-tamoxifen in medium 0 µM) | viability inhibition at highest dose (MCF-7; 4-OH-tamoxifen in medium 1 µM) | viability inhibition at highest dose (BT-474; 4-OH-tamoxifen in medium 0 µM) | viability inhibition at highest dose (BT-474; 4-OH-tamoxifen in medium 1 µM) | viability inhibition at highest dose (BT-474 Tam1) | viability inhibition at highest dose (T-47D Tam1) | viability inhibition at highest dose (T-47D Tam2) | viability inhibition at highest dose (ZR-75-1 Tam2)
1 | N#CCNC(=O)c1ccc(-c2ccnc(Nc3ccc(N4CCOCC4)cc3)n2)cc1 [Momelotinib (CYT-387)] (drug 10000 nM) | 6.2 | 5.38 | 43.1 | 31.1 | 7.45 | 22.8 | 17.9 | 48.5 | 69 | 3.98 | -26.5 | 38.6 | 39.2 | 40 | 8.52
2 | CC1(C)NC(=O)N(c2ccc([N+](=O)[O-])c(C(F)(F)F)c2)C1=O [Nilutamide] (drug 10000 nM) | -16.5 | -4.81 | -1.08 | 10.7 | 2.7 | -3.55 | -11.8 | -15.4 | 15.9 | -2.3 | -13.3 | -0.747 | 0.496 | 6 | 4.62
3 | CO[C@H]1C[C@@H]2CC[C@@H](C)[C@@](O)(O2)C(=O)C(=O)N2CCCC[C@H]2C(=O)O[C@H]([C@H](C)C[C@@H]2CC[C@@H](OCCO)[C@H](OC)C2)CC(=O)[C@H](C)/C=C(\C)[C@@H](O)[C@@H](OC)C(=O)[C@H](C)C[C@H](C)/C=C/C=C/C=C/1C [Everolimus] (drug 100 nM) | 35.9 | 32.7 | 15.6 | 15.8 | 34.2 | 29.1 | 24 | 47.5 | 34.3 | 15.8 | 11.4 | 22.1 | 28.2 | 25.9 | 38.4
4 | CC(=O)OC[C@H]1O[C@@H]([S-])[C@H](OC(C)=O)[C@@H](OC(C)=O)[C@@H]1OC(C)=O.CCP(CC)CC.[Au+] [Auranofin] (drug 2500 nM) | 15.9 | 25.5 | 22.4 | 66.5 | 20.7 | 31 | 36 | 91.7 | 33.9 | 58 | 97.5 | 96 | 54.3 | 59.3 | 12.5
5 | COc1cc2nccc(Oc3ccc(NC(=O)Nc4cc(C)on4)c(Cl)c3)c2cc1OC [Tivozanib  (AV-951)] (drug 10000 nM) | 13.6 | 4.79 | 13.2 | 43.4 | 3.78 | 22.3 | 19.7 | 24.5 | 23.7 | 31.9 | 75.6 | 71.8 | 23.7 | 22.1 | 11.2
6 | O=c1[nH]c(=O)n([C@H]2C[C@H](O)[C@@H](CO)O2)cc1F [Floxuridine] (drug 10000 nM) | 22.7 | 12.6 | 5.39 | 3.04 | 8.75 | 22.3 | 7.89 | 21 | 1.8 | 30.5 | 27.9 | 12.3 | 59 | 21.3 | 18.5
7 | CS(=O)(=O)CCNCc1ccc(-c2ccc3ncnc(Nc4ccc(OCc5cccc(F)c5)c(Cl)c4)c3c2)o1 [Lapatinib] (drug 1000 nM) | 0.392 | -2.73 | 0.111 | 96.2 | 5.35 | 5.41 | -0.526 | 6.77 | 17.5 | 76.6 | 95.8 | 96.8 | 14.6 | 16.8 | -5.73
8 | NC(=O)Nc1cc(-c2cccc(F)c2)sc1C(=O)N[C@H]1CCCNC1 [AZD7762] (drug 1000 nM) | 10.5 | -0.00544 | 2.31 | -14.7 | -10.3 | -14.8 | 13.8 | 35.5 | 5.25 | -6.57 | -6.16 | -13.6 | 18.2 | 29.3 | -5.84
9 | C#Cc1cccc(Nc2ncnc3cc(OC)c(OCCCCCCC(=O)NO)cc23)c1 [CUDC-101] (drug 10000 nM) | 42.7 | 51.5 | 48.3 | 94.4 | 42.4 | 95.1 | 94.8 | 89.6 | 94.5 | 93.9 | 97 | 95.6 | 88.4 | 76.8 | 54.5
10 | CC(=O)O[C@H]1C(=O)[C@@]2(C)[C@H]([C@H](OC(=O)c3ccccc3)[C@]3(O)C[C@H](OC(=O)[C@H](O)[C@@H](NC(=O)c4ccccc4)c4ccccc4)C(C)=C1C3(C)C)[C@]1(OC(C)=O)CO[C@@H]1C[C@@H]2O [Paclitaxel] (drug 1000 nM) | 26.9 | 4.99 | -17.1 | 25.5 | 4.53 | 47 | 15.8 | 28.8 | 25.8 | 42.7 | 55.7 | 35.2 | 26 | 35.9 | 0.492
11 | Nc1ccn([C@@H]2O[C@H](CO)[C@@H](O)[C@@H]2O)c(=O)n1 [Cytarabine] (drug 10000 nM) | 39.3 | 13 | 6.46 | 1.43 | 28.3 | 36.9 | 6.47 | 29.1 | 12 | -5.7 | 11 | 22.1 | 30.6 | -16.3 | 27.4
12 | COc1ccc(S(=O)(=O)Nc2cccnc2Nc2ccc(O)cc2)cc1 [ABT-751] (drug 10000 nM) | 36.3 | 14.9 | 1.63 | 54.2 | 4.33 | -0.891 | 2.69 | 50.3 | 44.6 | 42.6 | 73.1 | 64.7 | 58.6 | 38.3 | 18.6
13 | COc1ncc(-c2ccc3nccc(-c4ccnnc4)c3c2)cc1NS(=O)(=O)c1ccc(F)cc1F (drug 1000 nM) | 76.9 | 72.3 | 60.1 | 98 | 83 | 71.6 | 77.9 | 68.6 | 85 | 90 | 97.1 | 98.5 | 69.3 | 78 | 86.4
14 | CO[C@H](C(=O)[C@@H](O)[C@@H](C)O)[C@@H]1Cc2cc3cc(O[C@H]4C[C@@H](O[C@@H]5C[C@@H](O)[C@H](O)[C@@H](C)O5)[C@H](O)[C@@H](C)O4)c(C)c(O)c3c(O)c2C(=O)[C@H]1O[C@H]1C[C@@H](O[C@@H]2C[C@@H](O)[C@@H](O[C@@H]3C[C@](C)(O)[C@H](O)[C@@H](C)O3)[C@@H](C)O2)[C@H](O)[C@@H](C)O1 [Plicamycin  (Mithramycin A)] (drug 10000 nM) | 62.6 | 63.7 | 77.5 | 95.5 | 75.3 | 68.7 | 44.3 | 88.9 | 88.9 | 67.7 | 95 | 95.9 | 62 | 58.7 | 83.4
15 | Cn1cc(CNCC2CCN(c3ncc(C(=O)NO)cn3)CC2)c2ccccc21 (drug 1000 nM) | 47.6 | 37.9 | 21.6 | 74.7 | 37.4 | 94.3 | 94.1 | 89.3 | 90 | 88.3 | 94.3 | 83.8 | 86.6 | 71.1 | 48.7
16 | NC(=O)NO [Hydroxyurea] (drug 100000 nM) | -5.61 | 3.11 | 1.25 | 5.16 | 2.07 | -10.4 | 7.44 | -13.2 | 12.6 | -6.12 | 14.5 | 6.52 | -2.99 | 1.81 | -8.32
17 | CCC1=C[C@@H]2CN(C1)Cc1c([nH]c3ccccc13)[C@@](C(=O)OC)(c1cc3c(cc1OC)N(C)[C@H]1[C@@](O)(C(=O)OC)[C@H](OC(C)=O)[C@]4(CC)C=CCN5CC[C@]31[C@@H]54)C2 [Vinorelbine (tartrate)] (drug 10000 nM) | 26.2 | 36.3 | 6.83 | 93.8 | 29.4 | 6.97 | 31.1 | 49.1 | 55.8 | 46.9 | 94 | 95.6 | 59.6 | 63 | 29.9
18 | Nc1ccccc1NC(=O)c1ccc(CNc2nccc(-c3cccnc3)n2)cc1 [Mocetotinostat (MGCD0103)] (drug 10000 nM) | 32.8 | 23.3 | 15.4 | 83.4 | 27.6 | 81.2 | 73.8 | 80.1 | 62.7 | 65.7 | 94.3 | 95.4 | 52.9 | 41.7 | 31
19 | CC(C)(C)c1cc(NC(=O)Nc2ccc(-c3cn4c(n3)sc3cc(OCCN5CCOCC5)ccc34)cc2)no1 [Quizartinib (AC220)] (drug 1000 nM) | -17 | 8.56 | 3.09 | -5.01 | -2.41 | 11 | 9.31 | -2.81 | 6.24 | -0.626 | -13.2 | -3.77 | 11.5 | 15.8 | 5.08
20 | COC(=O)C[C@](O)(CCCC(C)(C)O)C(=O)O[C@@H]1C(OC)=C[C@]23CCCN2CCc2cc4c(cc2[C@H]13)OCO4 [Omacetaxine (Homoharringtonine)] (drug 10000 nM) | 54.1 | 52.2 | 62.7 | 73.4 | 53.7 | 81.1 | 55.6 | 82.1 | 75.5 | 19.5 | 75 | 82.1 | 74.5 | 71.4 | 76.1
21 | O=C1CCC(N2C(=O)c3ccccc3C2=O)C(=O)N1 (stereo not given) [Thalidomide] (drug 10000 nM) | 5.91 | 12 | 4.57 | 1.4 | 6.53 | 0.793 | 10.3 | 1.74 | 5.08 | 2.41 | 13.6 | 2.81 | 0.973 | 4.15 | -1.28
22 | Cc1ccc(-n2nc(C(C)(C)C)cc2NC(=O)Nc2ccc(OCCN3CCOCC3)c3ccccc23)cc1 [Doramapimod (BIRB 796)] (drug 10000 nM) | -1.07 | 0.647 | 9.34 | -5.97 | 1.82 | 6.71 | -2.59 | 17.6 | 19.3 | 3.99 | 15 | 21 | -1.73 | 17 | 2.11
23 | COc1cccc2c1C(=O)c1c(O)c3c(c(O)c1C2=O)C[C@@](O)(C(C)=O)C[C@@H]3O[C@H]1C[C@H](N)[C@H](O)[C@H](C)O1 [Daunorubicin] (drug 1000 nM) | 63.6 | 55.3 | 32.2 | 32.7 | 64.3 | 72.4 | 73.5 | 78.9 | 87.8 | 53.8 | 95.4 | 72.8 | 67.9 | 68.4 | 70.7
24 | Cc1ccc(C(=O)Nc2ccc(CN3CCN(C)CC3)c(C(F)(F)F)c2)cc1C#Cc1cnc2cccnn12 (drug 1000 nM) | 3.08 | 12 | 12.7 | 6 | 12.3 | 20.5 | 33.7 | 11.5 | 25.9 | -2.54 | 36.2 | 35.9 | 70.1 | 37.9 | 12
